Test results published in PMC7038073, “Substituted Piperazines as Novel Potential Radioprotective Agents” (Molecules, 2020).

Tests used:
[1] = WST-1 cytotoxicity test, SAOS-2; type: cell-based; conditions: human, SAOS-2 cells, 48 h, WST-1, mean ± SD of three experiments, read-out: relative viability (%) compared to untreated control
Protocol: (§1) In this study, the cytotoxic effects of nine new compounds (2, 3, 4, 5, 6, 7, 8, 9, 10) were tested on 10 human cell lines (nine cancer and one non-cancer cell line). The cell lines were treated with each compound at concentrations of 10 µM and 100 µM for 48 h. The proliferation capacity of the treated cells was determined by WST-1 test and compared against the proliferation rate of the untreated control cells (100%).
(§2) The cell lines Jurkat, MOLT-4, A2780, A549, HT-29, PANC-1, HeLa, MCF-7, SAOS-2, and MRC-5 (all purchased from Sigma Aldrich, Czech Republic) were included in this study. All cell lines were maintained according to the provider’s guidelines, and plated and treated in 96-well plates (500 to 30 × 10^3 cells per well). The tested compounds 2, 3, 4, 5, 6, 7, 8, 9, and 10 were dissolved in 0.1% DMSO and kept in 10 mM stock solutions. Before use, the stock solution was diluted in culture media at ratios of 1:100 and 1:1000. The studied cell lines were treated with the compounds 2, 3, 4, 5, 6, 7, 8, 9, and 10 at concentrations of 10 and 100 µM for 48 h. Control cells were tested in culture media with and without DMSO (0.1%). The cells were also treated with 1 µM doxorubicin as a cytotoxicity control.
(§3) The WST-1 (2-(4-iodophenyl)-3-(4-nitrophenyl)-5-(2,4-disulfophenyl)-2H-tetrazolium, monosodium salt) test (Roche, Mannheim, Germany) was used according to the manufacturer’s protocol to determine cell viability in all 10 cell lines 48 h after treatment with the tested compounds. The cells were analyzed in a Tecan Infinite M200 spectrometer (Tecan Group, Männedorf, Switzerland) at 440 nm.

[2] = WST-1 cytotoxicity test, MOLT-4; type: cell-based; conditions: human, MOLT-4 cells, 48 h, WST-1, mean ± SD of three experiments, read-out: relative viability (%) compared to untreated control
Protocol: as §1, §2, §3

[3] = WST-1 cytotoxicity test, Jurkat; type: cell-based; conditions: human, Jurkat cells, 48 h, WST-1, mean ± SD of three experiments, read-out: relative viability (%) compared to untreated control
Protocol: as §1, §2, §3

[4] = WST-1 cytotoxicity test, HeLa; type: cell-based; conditions: human, HeLa cells, 48 h, WST-1, mean ± SD of three experiments, read-out: relative viability (%) compared to untreated control
Protocol: as §1, §2, §3

MOLT-4 cells = experiment: Radioprotection in vitro, Annexin V/PI flow cytometry after irradiation; type: cell-based, human; conditions: Homo sapiens, MOLT-4, light or radiation study, 60-min pre-treatment, 1 Gy, 24 h following irradiation, irradiated untreated 40%, non-irradiated control 92%, read-out: percentage of viable MOLT-4 cells (Annexin V and PI negative) after irradiation
Source text: Phosphatidylserine, a major component of the inner leaflet of the cytoplasmic membrane bilayers, is frequently used as an indicator of cell death. The externalization of this phospholipid can be detected through Annexin V, which binds to phosphatidylserine in the presence of calcium. Cell viability was quantified by Annexin V-Alexa Fluor® 488/propidium iodide (PI) staining and flow cytometry analysis to determine whether the tested compounds could prevent radiation-induced cell death in MOLT-4 cells. The percentage of viable cells was 92% for non-irradiated control (0.1% DMSO vehicle) and 40% for untreated irradiated cells (1 Gy) (Figure 2A).
Fresh 50 mM stock solutions of the compounds were prepared in DMSO (Sigma-Aldrich, St. Louis, MO, USA) before use in the study. For the radioprotection experiments, MOLT-4 cells were treated with 100 μM solutions of the novel compounds and irradiated after 60 min with a ^60Co γ-ray source (Chisotron Chirana, Prague, Czech Republic). The non-irradiated and irradiated control cells were treated with DMSO vehicle only (0.1%) and handled in parallel with the experimental cells. Non-irradiated control cells were handled in the same manner. Cell viability was determined by flow cytometry using an Alexa Fluor® 488 Annexin V/Dead Cell Apoptosis kit (Life Technologies, Grand Island, NY, USA) according to the manufacturer’s instructions. The Alexa Fluor® 488 Annexin V/Dead Cell Apoptosis kit employs the property of Alexa Fluor® 488 conjugated to Annexin V to bind to phosphatidylserine in the presence of Ca^2+, and the property of propidium iodide (PI) to enter cells with damaged cell membranes and bind to DNA. Measurement was performed using a CyAn (Beckman Coulter, Miami, FL, USA) flow cytometer. Listmode data was analyzed with the Kaluza Analysis v1.3 software (Beckman Coulter, Miami, FL, USA).

[5] = WST-1 cytotoxicity test, A549; type: cell-based; conditions: human, A549 cells, 48 h, WST-1, mean ± SD of three experiments, read-out: relative viability (%) compared to untreated control
Protocol: as §1, §2, §3

[6] = WST-1 cytotoxicity test, A2780; type: cell-based; conditions: human, A2780 cells, 48 h, WST-1, mean ± SD of three experiments, read-out: relative viability (%) compared to untreated control
Protocol: as §1, §2, §3

[7] = WST-1 cytotoxicity test, MRC-5; type: cell-based; conditions: human, MRC-5 cells, 48 h, WST-1, mean ± SD of three experiments, read-out: relative viability (%) compared to untreated control
Protocol: as §1, §2, §3

[8] = test system: 10 human cell lines (nine cancer and one non-cancer cell line); experiment: WST-1 cytotoxicity test, statements over all cell lines; type: cell-based; conditions: 100 µM, 48 h, studied cell lines
Protocol: as §1, §2, §3

A549 cells = experiment: MTT assay, IC50 and MTC
Protocol: In further experiments, MTT (3-(4,5-di-methylthiazol-2-yl)-2,5-diphenyltetrazolium bromide) assay was employed to evaluate the toxicological indexes of the newly synthesized compounds, including IC50 (half-maximal inhibitory concentration) and MTC (maximum tolerated concentration).
IC50 and MTC were determined through MTT assays. The MTT assay was performed according to [35]. In brief, the A549 cell line was plated in 96-well plates (100 µL, 9 × 10^3 cells per well) and incubated overnight. The tested compounds were prepared in phosphate buffer saline (PBS; Sigma–Aldrich) and serially diluted in DMEM (Dulbecco’s Modified Eagle Medium). An untreated control was included as a viability standard in each plate. After 24 h of treatment, the viability of A549 cells was measured at 570 nm. All experiments were performed in triplicate. The GraphPad Prism statistics software v5.04 (GraphPad Software Inc., San Diego, CA, USA) was used to calculate the IC50 values for parameter nonlinear regression. Values are expressed as mean ± SEM.

SMILES: Cl.Cl.Cl.OCCN1CCN(CC(O)CNc2ccccc2)CC1 (stereo not shown) [Compound 10, 1-(phenylamino]-3-[4-(2-hydroxyethyl)piperazin-1-yl)propan-2-ol trihydrochloride]
- viability at 48 h, 10 µM ([1]; SAOS-2, 10 µM): 97 ± 6%
- viability at 48 h, 100 µM ([1]; SAOS-2, 100 µM): 102 ± 2%
- viability at 48 h, 10 µM ([2]; MOLT-4, 10 µM): 112 ± 6%
- viability at 48 h, 100 µM ([2]; MOLT-4, 100 µM): 100 ± 4%
- viability at 48 h, 10 µM ([3]; 10 µM): 108 ± 7%
- viability at 48 h, 100 µM ([3]; 100 µM): 95 ± 4%
- viability at 48 h, 10 µM ([4]; 10 µM): 110 ± 7%
- viability at 48 h, 100 µM ([4]; 100 µM): 121 ± 3%
- viability at 100 µM (MOLT-4 cells): 51%
- viability at 48 h, 10 µM ([5]; A549, 10 µM): 105 ± 9%
- viability at 48 h, 100 µM ([5]; A549, 100 µM): 105 ± 2%
- viability at 48 h, 10 µM ([6]; A2780, 10 µM): 103 ± 6%
- viability at 48 h, 100 µM ([6]; A2780, 100 µM): 96 ± 2%
- viability at 48 h, 10 µM ([7]; MRC-5, 10 µM): 102 ± 3%
- viability at 48 h, 100 µM ([7]; MRC-5, 100 µM): 102 ± 8%
- cytotoxic effect (in words) [8]: no significant cytotoxic effects
- IC50 fold higher than that for compound 2 (A549 cells; A549 cells, MTT): 126.5 fold
- MTC (maximum tolerated concentration) (A549 cells; A549 cells, MTT, 24 h of treatment): 1.56 mM
- IC50 (A549 cells; Homo sapiens, A549, 24 h, read-out: IC50 ± SEM): 5.06 ± 0.23 mM
